# Experimental data published in ChEMBL document CHEMBL3877286, “Green fluorescent protein chromophore derivatives as a new class of aldose reductase inhibitors” (Eur J Med Chem, 2017).
# Molecular target: T1, Aldo-keto reductase family 1 member B1 (Homo sapiens, UniProt P15121)
# Experiment: Potency index, ratio of sorbinil IC50 to compound IC50 for recombinant human ALR2
row,SMILES,Ratio IC50
1,CC1=N/C(=C\c2ccc(O)cc2)C(=O)N1CC(=O)O,6

# Molecular target: T1, Aldo-keto reductase family 1 member B1
# Experiment: Inhibition of recombinant human ALR2 assessed as reduction in NADPH oxidation measured for 5 mins in presence of D,L-glyceraldehyde by spectrophotometric method
row,SMILES,IC50 [nM]
1,CC1=N/C(=C\c2cccc(O)c2)C(=O)N1CC(=O)O,3200
2,CC1=N/C(=C\c2cccc3ccccc23)C(=O)N1CC(=O)O,540
3,CC1=N/C(=C\c2cc(C)c(O)c(C)c2)C(=O)N1CC(=O)O,130
4,CC1=N/C(=C\c2ccc3ccccc3c2)C(=O)N1CC(=O)O,100
5,CC1=N/C(=C\c2ccc(OCC(=O)O)cc2)C(=O)N1CC(=O)O,310
6,COc1ccc(/C=C2\N=C(C)N(CC(=O)O)C2=O)cc1,510
7,CC1=N/C(=C\c2ccccc2)C(=O)N1CC(=O)O,580
8,CC1=N/C(=C\c2ccc(O)cc2)C(=O)N1CCC(=O)O,10700
9,CCOC(=O)CN1C(=O)/C(=C/c2ccc(O)cc2)N=C1C,23000
10,CCOC(=O)CN1C(=O)/C(=C/c2ccccc2)N=C1C,112000
11,CC1=N/C(=C\c2ccc(Br)cc2)C(=O)N1CC(=O)O,240
12,CC1=N/C(=C\c2ccc(Cl)cc2)C(=O)N1CC(=O)O,270
13,CC1=N/C(=C\c2ccc(O)cc2)C(=O)N1CC(=O)O,360
14,CC1=N/C(=C\c2ccc(F)cc2)C(=O)N1CC(=O)O,650
15,CCOC(=O)COc1ccc(/C=C2\N=C(C)N(CC(=O)OCC)C2=O)cc1,109000

# Molecular target: T1, Aldo-keto reductase family 1 member B1
# Experiment: Inhibition of recombinant human ALR2 assessed as reduction in NADPH oxidation at 13 uM measured for 5 mins in presence of D,L-glyceraldehyde by spectrophotometric method relative to control
row,SMILES,inhibition [%]
1,CCOC(=O)CN1C(=O)/C(=C/c2ccc(Cl)cc2)N=C1C,16
